Tested on: DMS-114 complex spheroids with HUVEC/MSC, growth % test/control
Experiment: Anticancer human tumor DMS-114 cell line growth inhibition [AhR];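 note: spheroids exposed to agents for 7 days before readout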;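 for viability, T/C: 100% = DMSO vehicle control wells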
Conditions: for IC50: curve of first compound; for viability, T/C: stronger effect = lower value
From the text: Multicellular complex tumor spheroid response to aryl hydrocarbon receptor antagonists in combination with a variety of drugs and investigational agents in selected tumor cell lines
The current study was undertaken to assess response to aryl hydrocarbon receptor antagonists in combination with standard-of-care drugs and investigational agents in solid tumor complex spheroid models. Complex spheroids include a stromal component modeled by human endothelial cells (HUVEC) and fibroblasts modeled by human mesenchymal stem cells (MSCs). The concentration ranges selected for each drug and investigational agent were based upon clinically achievable concentrations if the clinical Cmax of the agent was known.
Compounds. The drugs and investigational agents: BAY 2416964 (NSC825713), GNF351 (NSC835774), CH-223191 (NSC835775), CPI-455 (NSC825282), aza-TdCyd (NSC777586), decitabine (NSC127716), belinostat (NSC758774), entinostat (NSC756642), pevonedistat (NSC761192), tazemetostat (NSC777109), talazoparib (NSC765396), olaparib (NSC753686), selinexor (NSC780203), nedisertib (M3814, NSC802822), bortezomib (NSC756655), venetoclax (NSC766270), doxorubicin (NSC123127), elimusertib (BAY189344, NSC800525), ceralasertib (AZD6738, NSC777638), TAK-243 (NSC785004), alisertib (NSC759677), etoposide (NSC141540), topotecan (NSC609699), eribulin (NSC707389), gemcitabine (NSC613327), carboplatin (NSC241240), cisplatin (NSC119875), and SN-38 (NSC673596) were obtained from the National Cancer Institute (NCI) Developmental Therapeutics Program Chemical Repository (32). The FDA-approved anticancer drug set is available from the Developmental Therapeutics Program at https://dtp.cancer.gov/organization/dscb/obtaining/available plates.htm. […] The stock solutions were prepared in dimethyl sulfoxide (DMSO, Sigma-Aldrich, St. Louis, MO, cat. D2650), except for the platinum compounds which were prepared in saline (Quality Biological, Gaithersburg, MD, cat. 114-055-101), at 800-fold the tested concentration and stored at -70 degrees C prior to their use. All drugs and investigational agents were tested over a range starting from a high concentration at or near the clinical Cmax and decreasing in half-log increments. If the clinical Cmax for an agent had not been determined, the highest concentration tested was 10 microM (Table 1).
Cell Culture. All cells were maintained in an incubator at 37 degrees C and 5% CO2 with 95% humidity. The PDC lines were cultured according to standard operating procedures established by the NCI PDMR (https://pdmr.cancer.gov). Briefly, all PDCs were thawed and cultured in Matrigel-coated flasks prepared with a working solution of 1X Ham's F-12 nutrient mix, without supplementation (Invitrogen, Waltham, MA, cat. 11765054), 100 U/mL penicillin-streptomycin (Invitrogen, cat. 15140122), and 2.5% Matrigel (Corning Inc., Corning, NY, cat. 354248) for the first three passages. All PDCs were cultured in complete DMEM/F-12 media containing advanced DMEM/F-12 (Invitrogen, cat. 12634028), 4.9% defined fetal bovine serum, heat inactivated (HyClone Laboratories Inc., Logan, UT, cat. SH30070.03HI), 389 ng/mL hydrocortisone (Sigma-Aldrich, cat. H4001), 9.7 ng/mL human EGF recombinant protein (Invitrogen, cat. PHG0313), 23.4 microg/mL adenine (Sigma-Aldrich, cat. A2786), 97.3 U/mL penicillin-streptomycin (Invitrogen, cat. 15140122), 1.9 mM L-glutamine (Invitrogen, cat. 25030081), and 9.7 microM Y-27632 dihydrochloride (Tocris Bioscience, Bristol, United Kingdom, cat. 1254). The PDCs were cultured in complete DMEM/F12 media without 10 microM Y-27632 dihydrochloride for at least two passages prior to the screen. The established cell lines NCI-H1341 and […] were cultured in DMEM/F-12, HEPES (Invitrogen, cat. 11330032), 5% defined fetal bovine serum (HyClone Laboratories Inc., cat. SH30070.03), ITS premix universal culture supplement [insulin (5 microg/mL), transferrin (5 microg/mL), and selenious acid (5 ng/mL)] […]

[1] = second compound 0.1 µM, first compound 0.00316 µM
[2] = second compound 0.1 µM, first compound 0.01 µM
[3] = second compound 0.1 µM, first compound 0.0316 µM
[4] = second compound 0.1 µM, first compound 0.1 µM
[5] = second compound 0.316 µM, first compound 0.00316 µM
[6] = second compound 0.316 µM, first compound 0.01 µM
[7] = second compound 0.316 µM, first compound 0.0316 µM
[8] = second compound 0.316 µM, first compound 0.1 µM
[9] = second compound 1 µM, first compound 0.00316 µM
[10] = second compound 1 µM, first compound 0.01 µM
[11] = second compound 1 µM, first compound 0.0316 µM
[12] = second compound 1 µM, first compound 0.1 µM
[13] = second compound 3.16 µM, first compound 0.00316 µM
[14] = second compound 3.16 µM, first compound 0.01 µM
[15] = second compound 3.16 µM, first compound 0.0316 µM
[16] = second compound 3.16 µM, first compound 0.1 µM
[17] = second compound 10 µM, first compound 0.00316 µM
[18] = second compound 10 µM, first compound 0.01 µM
[19] = second compound 10 µM, first compound 0.0316 µM
[20] = second compound 10 µM, first compound 0.1 µM
[21] = second compound 0.1 µM, first compound 0.316 µM
[22] = second compound 0.1 µM, first compound 1 µM
[23] = second compound 0.1 µM, first compound 3.16 µM
[24] = second compound 0.1 µM, first compound 10 µM
[25] = second compound 0.316 µM, first compound 0.316 µM
[26] = second compound 0.316 µM, first compound 1 µM
[27] = second compound 0.316 µM, first compound 3.16 µM
[28] = second compound 0.316 µM, first compound 10 µM
[29] = second compound 1 µM, first compound 0.316 µM
[30] = second compound 1 µM, first compound 1 µM
[31] = second compound 1 µM, first compound 3.16 µM
[32] = second compound 1 µM, first compound 10 µM
[33] = second compound 3.16 µM, first compound 0.316 µM
[34] = second compound 3.16 µM, first compound 1 µM
[35] = second compound 3.16 µM, first compound 3.16 µM
[36] = second compound 3.16 µM, first compound 10 µM
[37] = second compound 10 µM, first compound 0.316 µM
[38] = second compound 10 µM, first compound 1 µM
[39] = second compound 10 µM, first compound 3.16 µM
[40] = second compound 10 µM, first compound 10 µM

Row | Structure (SMILES) | IC50 (second compound 0.1 µM) [nM] | IC50 (second compound 0.316 µM) [nM] | IC50 (second compound 1 µM) [nM] | IC50 (second compound 3.16 µM) [nM] | IC50 (second compound 10 µM) [nM] | viability, T/C [3] [%] | viability, T/C [4] [%] | viability, T/C [7] [%] | viability, T/C [8] [%] | viability, T/C [11] [%] | viability, T/C [12] [%] | viability, T/C [15] [%] | viability, T/C [16] [%] | viability, T/C [19] [%] | viability, T/C [20] [%] | viability, T/C [21] [%] | viability, T/C [22] [%] | viability, T/C [25] [%] | viability, T/C [26] [%] | viability, T/C [29] [%] | also measured
1 | CC[C@@]1(O)C(=O)OCc2c1cc1n(c2=O)Cc2cc3c(CN(C)C)c(O)ccc3nc2-1 + CC(CO)NC(=O)c1cc(-c2ccc(Cl)cc2)nn(-c2cnn(C)c2)c1=O | 34.6 | 32.4 | 37.2 | 32.7 | 32.8 | 51.9 | 27.2 | 46 | 26.9 | 54.6 | 21.9 | 51 | 26.4 | 48.1 | 25.4 |  |  |  |  |  | viability, T/C (second compound 0.1 µM, first compound 0.000316 µM): 101%; viability, T/C (second compound 0.1 µM, first compound 0.001 µM): 103%; viability, T/C [1]: 95.7%; viability, T/C [2]: 95.2%; viability, T/C (second compound 0.316 µM, first compound 0.000316 µM): 105%; viability, T/C (second compound 0.316 µM, first compound 0.001 µM): 99%; viability, T/C [5]: 83.2%; viability, T/C [6]: 81.3%; viability, T/C (second compound 1 µM, first compound 0.000316 µM): 88.9%; viability, T/C (second compound 1 µM, first compound 0.001 µM): 95.2%; viability, T/C [9]: 90%; viability, T/C [10]: 85.5%; viability, T/C (second compound 3.16 µM, first compound 0.000316 µM): 104%; viability, T/C (second compound 3.16 µM, first compound 0.001 µM): 100%; viability, T/C [13]: 92.1%; viability, T/C [14]: 74.2%; viability, T/C (second compound 10 µM, first compound 0.000316 µM): 116%; viability, T/C (second compound 10 µM, first compound 0.001 µM): 105%; viability, T/C [17]: 95.1%; viability, T/C [18]: 92.7%
2 | COc1cc(C2c3cc4c(cc3C(OC3OC5COC(C)OC5C(O)C3O)C3COC(=O)C23)OCO4)cc(OC)c1O (stereo not given) + CC(CO)NC(=O)c1cc(-c2ccc(Cl)cc2)nn(-c2cnn(C)c2)c1=O | 572 | 469 | 448 | 431 | 489 | 87.4 | 88.4 | 95.9 | 88.3 | 97.7 | 89.9 | 90.4 | 94.8 | 94.4 | 97.7 | 64.3 | 34.2 | 55 | 34.3 | 56.3 | viability, T/C [23]: 25.8%; viability, T/C [24]: 13.2%; viability, T/C [27]: 25.8%; viability, T/C [28]: 13.4%; viability, T/C [30]: 31.4%; viability, T/C [31]: 22.7%; viability, T/C [32]: 14%; viability, T/C [33]: 52.8%; viability, T/C [34]: 32.9%; viability, T/C [35]: 23.6%; viability, T/C [36]: 12%; viability, T/C [37]: 58%; viability, T/C [38]: 32.9%; viability, T/C [39]: 22.2%; viability, T/C [40]: 12.7%
3 | COc1cccc2c1C(=O)c1c(O)c3c(c(O)c1C2=O)CC(O)(C(=O)CO)CC3OC1CC(N)C(O)C(C)O1 (stereo not given) + CC(CO)NC(=O)c1cc(-c2ccc(Cl)cc2)nn(-c2cnn(C)c2)c1=O | < 31.6 | 34 | < 31.6 | < 31.6 | < 31.6 | 40.4 | 34.1 | 51.2 | 31.4 | 48.8 | 33.5 | 43.9 | 35.4 | 43.4 | 27.3 | 8.85 | 1.01 | 8.15 | 0.97 | 10.3 | viability, T/C [23]: 0.27%; viability, T/C [24]: 0.6%; viability, T/C [27]: 0.59%; viability, T/C [28]: 0.6%; viability, T/C [30]: 0.95%; viability, T/C [31]: 0.33%; viability, T/C [32]: 0.54%; viability, T/C [33]: 9.19%; viability, T/C [34]: 0.92%; viability, T/C [35]: 1.14%; viability, T/C [36]: 0.73%; viability, T/C [37]: 9.28%; viability, T/C [38]: 0.38%; viability, T/C [39]: 0.32%; viability, T/C [40]: 0.4%
4 | Nc1ncn(C2CC(O)C(CO)O2)c(=O)n1 (stereo not given) + CC(CO)NC(=O)c1cc(-c2ccc(Cl)cc2)nn(-c2cnn(C)c2)c1=O | > 1000 | > 1000 | > 1000 | > 1000 | > 1000 | 97.8 | 96.5 | 93.9 | 80 | 90.3 | 93.8 | 80.1 | 94.5 | 93.4 | 98 | 85 | 61.6 | 79.8 | 59.8 | 83.3 | viability, T/C [1]: 102%; viability, T/C [2]: 95.6%; viability, T/C [5]: 122%; viability, T/C [6]: 101%; viability, T/C [9]: 91.3%; viability, T/C [10]: 105%; viability, T/C [30]: 72.3%; viability, T/C [13]: 109%; viability, T/C [14]: 104%; viability, T/C [33]: 85.1%; viability, T/C [34]: 70.7%; viability, T/C [17]: 101%; viability, T/C [18]: 99.7%; viability, T/C [37]: 91.8%; viability, T/C [38]: 76.5%
